From article PMC3086094 (Journal of molecular structure, 2011)

Experiments:
[1] = test system: CCD-18Co (human colon fibroblasts); assay: cells
[2] = test system: CCD-18Co (human colon fibroblasts)
[3] = test system: HCT-116 (human colon carcinoma); assay: MTS cytotoxicity assay, HCT-116; assay type: cell-based
[4] = test system: Caco-2 (human epithelial colorectal adenocarcinoma); assay: cells
[5] = test system: calf thymus DNA (EB-DNA complex); conditions: binding to DNA; cited from earlier work

| IC50 ([4]; Caco-2, 24 h) [µM] | IC50 ([4]; Caco-2, 48 h) [µM] | IC50 ([4]; Caco-2, 72 h) [µM] | SMILES | IC50 ([1]; 24 h) [µM] | IC50 ([1]; 48 h) [µM] | IC50 ([1]; 72 h) [µM] | cytotoxic selectivity, cancer cells versus normal cells CCD-18Co [2] | IC50 ([3]; HCT-116, 24 h) [µM] | IC50 ([3]; HCT-116, 48 h) [µM] | IC50 ([3]; HCT-116, 72 h) [µM] | KEB, binding constant for ethidium bromide [5] [M⁻¹] |
| --- | --- | --- | --- | --- | --- | --- | --- | --- | --- | --- | --- |
| 23.1 ± 1.2 | 17.9 ± 1.3 | 16.5 ± 2 | COc1cc([C@@H]2c3cc4c(cc3[C@@H](O[C@@H]3O[C@@H]5CO[C@@H](C)O[C@H]5[C@H](O)[C@H]3O)[C@H]3COC(=O)[C@H]23)OCO4)cc(OC)c1O [Etoposide] | 50.1 ± 1.5 | 45.2 ± 1.1 | 42.2 ± 1 | ~ 2.5 times | 27.2 ± 1.2 | 22.9 ± 1.5 | 18.3 ± 1.4 | – |
| – | – | – | CC[n+]1c(-c2ccccc2)c2cc(N)ccc2c2ccc(N)cc21 [ethidium bromide] | – | – | – | – | – | – | – | 1.2e+06 |
